The results in this text go back to patent publication US20050227933A1 (priority 2001, published 2005).

For test [1], the system named is adenine DNA methyltransferase. Format: biochemical.
The next test deals with Brucella abortus CcrM. The test is classed as biochemical.
Test [2] deals with Bacillus subtilis (ATCC #33234). Format: cell-based. The settings on record: 37° C., growth monitored up to 7.5 hours; read-out: IC50 (μM) Bacillus Subtilis Cell Growth.
Test [3] concerns Caulobacter crescentus (CB15N). The test is classed as cell-based. To be noted: 30° C., growth monitored at 630 nm up to 22 hours; read-out: IC50 (μM) Caulobacter crescentus Cell Growth.
The next test relates to Caulobacter cresentus. Description: microbe, parasite or virus in culture. Format: cell-based. To be noted: read-out: IC50 cell growth inhibition.
A further test deals with Bacillus subtilis. The test can be described thus: microbe, parasite or virus in culture. The test is classed as cell-based. The settings on record: read-out: IC50 cell growth inhibition.
Test [4] concerns the target dcm Methyltransferase (Hhal) (Haemophilus parahaemolyticus, UniProt P05102). The test is classed as biochemical, Hemophilus hemolyticus. To be noted: at 500 μM.
The test system of test [5] is Agrobacterium tumefaciens. Format: cell-based. The settings on record: read-out: IC50 cell growth inhibition.
A further test concerns Brucella abortus. The test is classed as cell-based.
The next test has as its target dam Methylase (E. coli) (Escherichia coli, UniProt P0AEE8). Format: biochemical. To be noted: 100 µM.
Another test has as its system Helicobacter pylori. The test is classed as cell-based. To be noted: read-out: IC50 cell growth inhibition.
Test [6] deals with bacterial cells expressing an adenine DNA methyltransferase. Format: cell-based, Caulobacter.

Chain of dam Methylase (E. coli) (P0AEE8 whole entry): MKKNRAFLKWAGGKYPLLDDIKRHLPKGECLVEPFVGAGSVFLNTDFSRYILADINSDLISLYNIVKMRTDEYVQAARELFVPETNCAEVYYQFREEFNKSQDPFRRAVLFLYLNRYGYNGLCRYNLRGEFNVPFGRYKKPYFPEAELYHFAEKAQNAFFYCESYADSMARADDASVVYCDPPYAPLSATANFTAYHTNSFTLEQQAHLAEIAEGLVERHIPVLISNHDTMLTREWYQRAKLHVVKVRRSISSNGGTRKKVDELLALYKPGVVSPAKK
Chain of dcm Methyltransferase (Hhal) (P05102 whole entry): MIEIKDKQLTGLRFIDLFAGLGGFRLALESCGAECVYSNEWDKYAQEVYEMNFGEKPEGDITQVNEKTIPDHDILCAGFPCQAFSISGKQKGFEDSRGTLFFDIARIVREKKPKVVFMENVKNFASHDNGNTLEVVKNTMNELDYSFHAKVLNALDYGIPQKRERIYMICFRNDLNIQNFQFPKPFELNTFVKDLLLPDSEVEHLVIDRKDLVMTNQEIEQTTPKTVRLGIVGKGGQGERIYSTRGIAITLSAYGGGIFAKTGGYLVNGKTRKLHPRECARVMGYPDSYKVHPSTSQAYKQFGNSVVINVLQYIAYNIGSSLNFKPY

For the compound `NCCNc1ncnc2[nH]cnc12` [compound (8)], in [1], the inhibitory activity result is “relatively low (mM range)”.
The term IC50 denotes the midpoint of a concentration-inhibition curve. Consider `Cc1ccc2cccc(OB(c3ccc(F)cc3)c3ccc(F)cc3)c2n1` [(12ii), Di-(p-fluorophenyl)borinic acid 8-hydroxyquinaldine ester], for which, in the test with Brucella abortus CcrM, the “% reaction Brucella abortus CcrM Activity” value turned out to be 17%. The IC50 is over 100 µM in test [2] and 56 µM in [3].
With `Clc1ccc(OB(c2ccc3c(c2)OCO3)c2ccc3c(c2)OCO3)c2ncccc12` [(13vi), Di-(3,4-methylenedioxyphenyl)borinic acid 5-chloro-8-hydroxyquinoline ester], the IC50 was over 100 µM in test [2] and 7 µM in test [3].
In the case of `COc1ccc(B(Oc2cccc3ccc(C)nc23)c2ccc(OC)cc2)cc1` [(12vii), Di-(4-methoxyphenyl)borinic acid 8-hydroxyquinaldine ester], the “% reaction Brucella abortus CcrM Activity” value with Brucella abortus CcrM is on record as 56%. Moreover, the IC50 in [2] is over 100 µM; in [3], 24 µM.
In the case of `c1ccc([B-]2(c3ccccc3)Oc3cccc4ccc[n+]2c34)cc1` [Compound (3), diphenylborinic acid 8-hydroxyquiniline ester], the IC50 in the test on Caulobacter cresentus is over 100 µM.
Regarding `COc1ccc(B(Oc2ccc(Cl)c3cccnc23)c2ccc(OC)cc2)cc1` [(13vii), Di-(4-methoxyphenyl)borinic acid 5-chloro-8-hydroxyquinoline ester], the IC50 in test [2] was 36 µM; in [3], 7 µM.
Consider `Fc1ccc([B-]2(c3ccc(F)cc3)Oc3cccc4ccc[n+]2c34)cc1` [Compound (1), di-(p-fluorophenyl)borinic acid 8-hydroxyquiniline ester], for which the IC50 with Caulobacter cresentus worked out at 23 µM; with Bacillus subtilis, 1.4 µM.
`NCCOB(c1ccc(Cl)cc1)c1ccc(Cl)cc1` [(19iii), Di-(4-chlorophenyl)borinic acid ethanolamine ester]: the IC50 in [3] amounted to 17 µM.
In the case of “6-N-(diphenylborinic ester)-ethyl-9-(2-(4-morpholinyl)-ethyl)-adenine [Compound 3b]”, the “inhibition of dcm Methyltransferase” value in [4] is “No inhibition at all”. For the same compound, the IC50 in test [5] is 25 µM. Besides, in the test on Brucella abortus, the “effect on cell growth” value is given as “Complete cell death after 12 hours”. Besides, the “inhibition of dam Methylase” value at dam Methylase (E. coli) is “Complete inhibition”.
Turning to “Diphenylborinic acid 2-amino-1-phenylpropanol [(17i)]”, in the test with Brucella abortus CcrM, the “% reaction Brucella abortus CcrM Activity” value was 114%. Also, the IC50 in test [2] and in test [3] was over 100 µM in each case.
Take `O=[N+]([O-])c1ccc(OB(c2ccc3c(c2)OCO3)c2ccc3c(c2)OCO3)c2ncccc12` [(14vi), Di-(3,4-methylenedioxyphenyl)borinic acid 8-hydroxy-5-nitroquinoline ester]: the “% reaction Brucella abortus CcrM Activity” value with Brucella abortus CcrM is 21%. The IC50 was over 100 µM in test [2] and 7 µM in [3].
As to “6-N-(diphenylborinic ester)-ethyl-9-(3-(N-phthaloyl)-aminopropyl)-adenine [Compound 3c]”, in test [4], the “inhibition of dcm Methyltransferase” value is reported as “No inhibition at all”. For the same compound, in test [5], the IC50 stood at 25 µM. Moreover, the “effect on cell growth” value in the test with Brucella abortus is “Cell growth inhibited from start”. Also, the “inhibition of dam Methylase” value on dam Methylase (E. coli) is listed as “Complete inhibition”.
For the compound `Fc1ccc(B(Oc2cccc3cccnc23)c2ccc(F)cc2)cc1` [(11ii), Di-(4-fluorophenyl)borinic acid 8-hydroxyguinoline ester], the “% reaction Brucella abortus CcrM Activity” value in the test on Brucella abortus CcrM is 61%. Moreover, the IC50 in test [3] worked out at 23 µM.
For `Clc1ccc(B(Oc2cccc3cccnc23)c2ccc(Cl)cc2)cc1` [(11iii), Di-(4-chlorophenyl)borinic acid 8-hydroxyquinoline ester] the same measures were 61% and 16 µM.
Turning to `COc1ccc(B(Oc2cccc3cccnc23)c2ccc(OC)cc2)cc1` [(11vii), Di-(4-methoxyphenyl)borinic acid 8-hydroxyquinoline ester], the concentration for half-maximal inhibition (IC50) in test [2] worked out at 20 µM; in [3], 24 µM.
On to `c1csc(B(Oc2cccc3cccnc23)c2cccs2)c1` [(11viii), Di-(2-thienyl)borinic acid 8-hydroxyguinoline ester], for which the “% reaction Brucella abortus CcrM Activity” value with Brucella abortus CcrM was found to be 74%. Also, the IC50 in test [2] is 28 µM; in [3], over 100 µM.
Regarding “6-N-(diphenylborinic ester)-ethyl-9-(ethyl-2-acrylate)-methyl-adenine [Compound 3e]”, the “inhibition of dcm Methyltransferase” value in test [4] is given as “No inhibition at all”. In the test on Brucella abortus, the “effect on cell growth” value is on record as “Cell growth inhibited from start”. Also, the “inhibition of dam Methylase” value at dam Methylase (E. coli) was “Complete inhibition”. For the same compound, the IC50 in the test on Helicobacter pylori stood at 25 µM.
In the case of `Clc1ccc([B-]2(c3ccc(Cl)cc3)Oc3cccc4ccc[n+]2c34)cc1` [Compound (2), di-(p-chlorophenyl)borinic acid 8-hydroxyquiniline ester], the results for the IC50 with Caulobacter cresentus and in the test on Bacillus subtilis were 1.6 µM and 7 µM, respectively.
With `c1cnc2c(OB(c3ccc4c(c3)OCO4)c3ccc4c(c3)OCO4)cccc2c1` [(11vi), Di-(3,4-methylenedioxyphenyl)borinic acid 8-hydroxyquinoline ester], in the test on Brucella abortus CcrM, the “% reaction Brucella abortus CcrM Activity” value was 42%. Moreover, the IC50 was found to be 28 µM in [2] and 32 µM in test [3].
With `c1ccc(B(Oc2cccc3cccnc23)c2ccccc2)cc1` [(11i), diphenylborinic acid 8-hydroxyquiniline ester], the IC50 in test [3] was over 100 µM.
Turning to `Clc1ccc(B(Oc2ccc(Cl)c3cccnc23)c2ccc(Cl)cc2)cc1` [(13iii), Di-(p-chlorophenyl)borinic acid 5-chloro-8-hydroxyquinaline ester], the “% reaction Brucella abortus CcrM Activity” value with Brucella abortus CcrM came to 81%. The IC50 was under 10 µM in test [2] and 6 µM in [3].
In the case of `Fc1ccc([B-]2(c3ccc(F)cc3)[NH2+]CCO2)cc1` [Compound (4), di-(p-fluorophenyl)borinic acid ethanolamine ester], the 50% inhibitory concentration (IC50) is 8.5 µM in the test with Caulobacter cresentus and 3.4 µM in the test on Bacillus subtilis.
Turning to “Diphenylborinic acid (S)-(+)-pyrrolidine-2-methanol [(18i)]”, the “% reaction Brucella abortus CcrM Activity” value in the test on Brucella abortus CcrM came out at 81%. Also, the IC50 in [2] and in test [3] was over 100 µM each time.
Consider `NCCOB(c1ccc(F)cc1)c1ccc(F)cc1` [(19ii), Di-(4-fluorophenyl)borinic acid ethanolamine ester], for which the “% reaction Brucella abortus CcrM Activity” value in the test with Brucella abortus CcrM stood at 8%. Moreover, the IC50 in test [3] was 85 µM.
`c1ccc(B(OCCNc2ncnc3[nH]cnc23)c2ccccc2)cc1`: the “concentration found to inhibit cell growth” value in [6] was under 50 µM.
Take `Fc1cc(Cl)ccc1B(Oc1cccc2cccnc12)c1ccc(Cl)cc1F` [(11v), Di-(4-chloro-2-fluorophenyl)borinic acid 8-hydroxyquinoline ester]: the IC50 in test [2] was under 10 µM; in [3], 26 µM.
Regarding “6-N-(diphenylborinic ester)-ethyl-adenine [Compound 3a]”, the “inhibition of dcm Methyltransferase” value in test [4] is on record as “No inhibition at all”. In addition, the IC50 in [5] was over 100 µM. The “effect on cell growth” value in the test on Brucella abortus is given as “Almost complete cell death after 12 hours”. In addition, on dam Methylase (E. coli), the “inhibition of dam Methylase” value is “Complete inhibition”.
For `Fc1ccc(B(Oc2ccc(Cl)c3cccnc23)c2ccc(F)cc2)cc1` [(13ii), Di-(p-fluorophenyl)borinic acid 5-chloro-8-hydroxyquinaline ester], the “% reaction Brucella abortus CcrM Activity” value with Brucella abortus CcrM amounted to 55%. Moreover, the IC50 in [2] turned out to be 27 µM; in [3] it was 7 µM.
For `c1ccc(B(OCc2ccccn2)c2ccccc2)cc1` [(16i), Diphenylborinic acid pyridine-2-methanol] the same measures were 93%, over 100 µM and over 100 µM.
With `Cc1ccc2cccc(OB(c3ccc(Cl)cc3)c3ccc(Cl)cc3)c2n1` [(12iii), Di-(p-chlorophenyl)borinic acid 8-hydroxyguinaldine ester], in the test on Brucella abortus CcrM, the “% reaction Brucella abortus CcrM Activity” value amounted to 40%. Further, the results for the IC50 in test [2] and in [3] were 24 µM and 5 µM, respectively.
For the compound `Clc1ccc([B-]2(c3ccc(Cl)cc3)[NH2+]CCO2)cc1` [Compound (5), di-(p-chlorophenyl)borinic acid ethanolamine ester], the IC50 in the test with Caulobacter cresentus was 1.7 µM; in the test with Bacillus subtilis, 3.2 µM.
As for “6-N-(diphenylborinic ester)-ethyl-9-(2-(2-(2-hydroxyethoxy)ethoxy)ethyl)-adenine [Compound 3d]”, the “inhibition of dcm Methyltransferase” value in [4] is recorded as “No inhibition at all”. For the same compound, the “effect on cell growth” value with Brucella abortus was “Cell growth inhibited from start”. The “inhibition of dam Methylase” value against dam Methylase (E. coli) is on record as “Complete inhibition”.
In the case of `Clc1cccc(B(Oc2cccc3cccnc23)c2cccc(Cl)c2)c1` [(11iv), Di-(3-chlorophenyl)borinic acid 8-hydroxyguinoline ester], the IC50 was under 10 µM in test [2] and 10 µM in [3].
